≈ marks a conversion by molar mass, not a printed value. Where only a bound is given, the exact number is not on record here.

Series [1] is described as follows: Permeability test using Caco-2 cell model. Conditions: human. On the procedure: (§1) Permeability Test: The permeability of SOMCL-9112 was evaluated using Caco-2 cell model.
A further series deals with P-gp. Description: Permeability test using Caco-2 cell model. The settings on record: human. On the procedure:
as §1

Series [2] can be described thus: Solubility of SOMCL-9112 API and solid dispersions in water and buffers (37° C., shaking). Type of series: physicochemical. Conditions: for solubility at 8 h: 37 °C, thermodynamic from solid. The protocol:
The SOMCL-9112 solid dispersion prepared in this Example and the SOMCL-9112 API powder were dissolved in water, simulated gastric fluid (pH 1.2), phosphate buffer (pH 4.5) and simulated intestinal fluid (pH6.8) to measure the solubility of SOMCL-9112 (37° C., shaking at 100 rpm for 8 h). The solid dispersion was sampled at 4 h and 8 h.
The SOMCL-9112 solid dispersion prepared in this example was dissolved in water, simulated gastric fluid (pH 1.2), phosphate buffer (pH 4.5) and simulated intestinal fluid (pH6.8) to measure the solubility of SOMCL-9112 (37° C., shaking at 100 rpm for 8 h).
The SOMCL-9112 solid dispersion prepared in this example was dissolved in a simulated intestinal fluid (pH6.8) to measure the solubility of SOMCL-9112 (37° C., shaking at 100 rpm for 8 h).

The nature of series [3]: Equilibrium solubility test (24 h, HPLC). Type of series: physicochemical. Conditions: thermodynamic from solid; for solubility thermodynamic at 24 h: 37° C., 100 rpm. On the procedure: Equilibrium Solubility Test: The solubility of SOMCL9112 in a series of solvents was investigated. The main solvents included water, pH 1.2 simulated gastric fluid, pH 4.5 phosphate buffer, and pH 6.8 simulated intestinal fluid. 0.5 g of SOMCL-9112 API was taken and added to 100 ml of each of the above solvents. The mixture was shaken at 37° C. shaker at 100 rpm for 24 h. The supernatant was centrifuged at 8000 rpm for 15 min and the concentration of SOMCL-9112 was determined by HPLC.

A further series deals with Caco-2 cell model. Description: in vitro. On the procedure: as §1
In series [4] the target is poly-ADP-ribose polymerase (PARP) (Homo sapiens, UniProt P09874). The settings on record: in words, no data shown; cited from earlier work.
Sequence of poly-ADP-ribose polymerase (PARP) (P09874 whole entry): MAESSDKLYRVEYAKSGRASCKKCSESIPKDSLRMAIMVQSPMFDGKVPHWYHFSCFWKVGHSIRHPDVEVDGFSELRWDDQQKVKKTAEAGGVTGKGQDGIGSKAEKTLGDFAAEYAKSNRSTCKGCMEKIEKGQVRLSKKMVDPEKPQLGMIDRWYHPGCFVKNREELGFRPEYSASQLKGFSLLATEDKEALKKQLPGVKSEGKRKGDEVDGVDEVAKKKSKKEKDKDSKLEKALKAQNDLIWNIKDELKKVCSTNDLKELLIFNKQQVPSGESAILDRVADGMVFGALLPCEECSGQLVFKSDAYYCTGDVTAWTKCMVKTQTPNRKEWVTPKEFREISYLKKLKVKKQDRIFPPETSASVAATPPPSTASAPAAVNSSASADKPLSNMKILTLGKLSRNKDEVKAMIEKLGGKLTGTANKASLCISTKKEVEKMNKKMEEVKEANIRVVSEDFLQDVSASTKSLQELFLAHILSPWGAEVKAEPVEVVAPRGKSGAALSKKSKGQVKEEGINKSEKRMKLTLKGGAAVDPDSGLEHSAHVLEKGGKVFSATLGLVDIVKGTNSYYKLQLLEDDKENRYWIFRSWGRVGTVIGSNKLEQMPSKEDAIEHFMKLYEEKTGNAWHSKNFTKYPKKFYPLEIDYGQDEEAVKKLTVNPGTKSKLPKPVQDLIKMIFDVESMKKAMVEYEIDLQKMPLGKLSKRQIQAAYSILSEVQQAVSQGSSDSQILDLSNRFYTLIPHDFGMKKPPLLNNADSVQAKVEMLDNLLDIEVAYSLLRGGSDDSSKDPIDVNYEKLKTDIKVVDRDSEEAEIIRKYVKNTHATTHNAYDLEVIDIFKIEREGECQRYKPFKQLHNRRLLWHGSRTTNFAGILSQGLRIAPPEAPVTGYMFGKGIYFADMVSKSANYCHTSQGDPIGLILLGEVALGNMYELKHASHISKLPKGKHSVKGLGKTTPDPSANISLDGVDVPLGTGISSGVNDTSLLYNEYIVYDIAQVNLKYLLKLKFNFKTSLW

In series [1], `C[C@H]1O[C@@H](O[C@H]2[C@@H](O)C[C@H](O[C@H]3[C@@H](O)C[C@H](O[C@H]4CC[C@@]5(C)[C@H](CC[C@@H]6[C@@H]5C[C@@H](O)[C@]5(C)[C@@H](C7=CC(=O)OC7)CC[C@]65O)C4)O[C@@H]3C)O[C@@H]2C)C[C@H](O)[C@@H]1O` [Digoxin, reference compound] had a Papp A→B of 0.09 ± 0.01 ×10⁻⁶ cm/s and a Papp B→A of 9.88 ± 1.41 ×10⁻⁶ cm/s. Further, the efflux ratio in the series with P-gp was 109.
In series [1], `CC(C)NCC(O)COc1cccc2ccccc12` (stereo not drawn) [Propranolol, reference compound] returned a Papp A→B of 10.5 ± 1.97 ×10⁻⁶ cm/s and a Papp B→A of 7.57 ± 0.6 ×10⁻⁶ cm/s. Also, the efflux ratio in the series with P-gp amounted to 0.72.
`CC1CN(C(=O)c2cc(Cc3n[nH]c(=O)c4ccccc34)ccc2F)Cc2nnc(C(F)(F)F)n21` (stereo not drawn) [SOMCL-9112, 4-(4-fluoro-3-(5-methyl-3-(trifluoromethyl)-5,6,7,8-4H-[1,2,4]triazolo[4,3-a]piperazine-7-carbonyl)benzyl)phthalazin-1(2H)-one] returned a solubility at 8 h in series [2] (pH 1.2, simulated gastric fluid) of 10.5 µg/mL (≈ 21.6 µM). The solubility at 8 h in series [2] (pH 4.5, aqueous buffer) is 18.9 µg/mL (≈ 38.9 µM). In series [2] (pH 6.8, fassgf or other biorelevant), this compound came in with a solubility at 8 h of 15.4 µg/mL (≈ 31.7 µM). The solubility at 8 h in series [2] (water) was 15.8 µg/mL (≈ 32.5 µM). In series [2] (fassgf or other biorelevant), the solubility was around 10 µg/mL (≈ 20.6 µM). Moreover, the thermodynamic solubility in series [3] (37 °C, aqueous buffer, pH 1.2-6.8 buffer saline solution) was below 100 µg/mL. Moreover, the solubility (thermodynamic) at 24 h in series [3] (aqueous buffer, pH 4.5 phosphate buffer) amounted to 18.6 µg/mL (≈ 38.2 µM). In addition, in series [3] (fassgf or other biorelevant, pH 6.8 simulated intestinal fluid), the thermodynamic solubility at 24 h was 16.2 µg/mL (≈ 33.3 µM). This compound also had a thermodynamic solubility at 24 h in series [3] (pH 1.2 simulated gastric fluid) of 10.3 µg/mL (≈ 21.2 µM). The same compound returned a solubility (thermodynamic) at 24 h in series [3] (water) of 14.8 µg/mL (≈ 30.4 µM). Moreover, in series [1] (Caco-2), the Papp A→B at 2 μM amounted to 0.72 ×10⁻⁶ cm/s, the apical-to-basolateral permeability (Papp A→B) at 10 μM was 0.26 ± 0.03 ×10⁻⁶ cm/s, the Papp A→B at 50 μM came to 0.34 ± 0.06 ×10⁻⁶ cm/s and the basolateral-to-apical permeability (Papp B→A) at 2 μM is 16.3 ± 0.34 ×10⁻⁶ cm/s. In series [1] (Caco-2), the Papp B→A at 10 μM turned out to be 16.1 ± 1.05 ×10⁻⁶ cm/s and the basolateral-to-apical permeability (Papp B→A) at 50 μM came to 18.7 ± 0.28 ×10⁻⁶ cm/s. In addition, in the series on Caco-2 cell model, the Permeability characteristic entry is “low permeability characteristic”. In the series on P-gp (Caco-2), the efflux ratio at 2 μM is 22.6, the efflux ratio at 10 μM was determined as 61.9 and the efflux ratio at 50 μM worked out at 54.5. Further, the “Inhibitory effect on PARP” value in series [4] was “significant inhibitory effect”.
